According to ChEMBL document CHEMBL6092221, “Discovery of a Novel Macrocyclic Noncovalent CDK7 Inhibitor for Cancer Therapy” (J Med Chem, 2024):

Legend:
[1] = Clearance in female Balb/c nude mouse at 1 mg/kg, iv; assay type: ADME, organism-based; conditions: in vivo
[2] = Cmax in female Balb/c nude mouse at 5 mg/kg, po; assay type: ADME, organism-based; conditions: in vivo
[3] = Clearance in rat at 1 mg/kg, iv; assay type: ADME, organism-based; conditions: in vivo
[4] = Oral bioavailability in rat at 5 mg/kg; assay type: ADME, organism-based; conditions: in vivo
[5] = Oral bioavailability in dog at 2 mg/kg; assay type: ADME, organism-based, Canis lupus familiaris; conditions: in vivo
[6] = Cmax in Sprague-Dawley rat at 300 mg/kg, po; assay type: ADME, organism-based; conditions: in vivo
[7] = molecular target: Cyclin-dependent kinase 9 (Homo sapiens, UniProt P50750); assay: Inhibition of CDK9 (unknown origin)
[8] = molecular target: Mitogen-activated protein kinase 15 (Homo sapiens, UniProt Q8TD08); assay: Inhibition of Erk8 (unknown origin)
[9] = molecular target: Cyclin-dependent kinase 14/Cyclin-Y (Homo sapiens, UniProt O94921); assay: Inhibition of CDK14/Cyclin Y (unknown origin); assay type: protein-complex assay
CDK18/Cyclin Y = CDK18/Cyclin Y (Homo sapiens, UniProt Q07002+Q8ND76); assay: Inhibition of CDK18/Cyclin Y (unknown origin); assay type: protein-complex assay
[10] = molecular target: Mitogen-activated protein kinase 7 (Homo sapiens, UniProt Q13164); assay: Inhibition of Erk5 (unknown origin)
[11] = molecular target: Serine/threonine-protein kinase D1 (Homo sapiens, UniProt Q15139); assay: Inhibition of PRKD1 (unknown origin)
Cytochrome P450 1A2 = Cytochrome P450 1A2 (Homo sapiens, UniProt P05177); assay: Inhibition of CYP1A2 (unknown origin); assay type: ADME
Cytochrome P450 2C19 = Cytochrome P450 2C19 (Homo sapiens, UniProt P33261); assay: Inhibition of CYP2C19 (unknown origin); assay type: ADME
[12] = Half life in human OVCAR-3 cells xenografted in female Balb/c nude mouse plasma at 20 mg/kg, po administered once daily; assay type: ADME, organism-based
[13] = AUC (0 to t) in human OVCAR-3 cells xenografted in female Balb/c nude mouse plasma at 2 mg/kg, po administered once daily; assay type: ADME, organism-based
[14] = Cmax in human HCC70 cells xenografted in female nu/nu mouse plasma at 10 mg/kg, po administered once daily; assay type: ADME, organism-based
HCC70 = assay: cells; conditions: Homo sapiens, HCC70, 72 h
Description: Antiproliferative activity against human HCC70 cells assessed as inhibition of cell proliferation incubated for 72 hrs by celltiter-glo assay

OVCAR-3 = assay: cells; conditions: Homo sapiens, OVCAR-3, 72 h
Description: Antiproliferative activity against human OVCAR-3 cells assessed as inhibition of cell proliferation incubated for 72 hrs by celltiter-glo assay

[15] = molecular target: Ribosomal protein S6 kinase alpha-3 (Homo sapiens, UniProt P51812); assay: Inhibition of RSK2 (unknown origin) at 200 nM relative to control; values are per cent of control
[16] = molecular target: Serine/threonine-protein kinase D2 (Homo sapiens) (UniProt Q9BZL6); assay: Inhibition of PRKD2 (unknown origin) at 200 nM relative to control; values are per cent of control
[17] = molecular target: Serine/threonine-protein kinase TAO1 (Homo sapiens) (UniProt Q7L7X3); assay: Inhibition of TAOK1 (unknown origin) at 200 nM relative to control; values are per cent of control
Chain of Serine/threonine-protein kinase TAO1 (Homo sapiens) (Q7L7X3 whole entry): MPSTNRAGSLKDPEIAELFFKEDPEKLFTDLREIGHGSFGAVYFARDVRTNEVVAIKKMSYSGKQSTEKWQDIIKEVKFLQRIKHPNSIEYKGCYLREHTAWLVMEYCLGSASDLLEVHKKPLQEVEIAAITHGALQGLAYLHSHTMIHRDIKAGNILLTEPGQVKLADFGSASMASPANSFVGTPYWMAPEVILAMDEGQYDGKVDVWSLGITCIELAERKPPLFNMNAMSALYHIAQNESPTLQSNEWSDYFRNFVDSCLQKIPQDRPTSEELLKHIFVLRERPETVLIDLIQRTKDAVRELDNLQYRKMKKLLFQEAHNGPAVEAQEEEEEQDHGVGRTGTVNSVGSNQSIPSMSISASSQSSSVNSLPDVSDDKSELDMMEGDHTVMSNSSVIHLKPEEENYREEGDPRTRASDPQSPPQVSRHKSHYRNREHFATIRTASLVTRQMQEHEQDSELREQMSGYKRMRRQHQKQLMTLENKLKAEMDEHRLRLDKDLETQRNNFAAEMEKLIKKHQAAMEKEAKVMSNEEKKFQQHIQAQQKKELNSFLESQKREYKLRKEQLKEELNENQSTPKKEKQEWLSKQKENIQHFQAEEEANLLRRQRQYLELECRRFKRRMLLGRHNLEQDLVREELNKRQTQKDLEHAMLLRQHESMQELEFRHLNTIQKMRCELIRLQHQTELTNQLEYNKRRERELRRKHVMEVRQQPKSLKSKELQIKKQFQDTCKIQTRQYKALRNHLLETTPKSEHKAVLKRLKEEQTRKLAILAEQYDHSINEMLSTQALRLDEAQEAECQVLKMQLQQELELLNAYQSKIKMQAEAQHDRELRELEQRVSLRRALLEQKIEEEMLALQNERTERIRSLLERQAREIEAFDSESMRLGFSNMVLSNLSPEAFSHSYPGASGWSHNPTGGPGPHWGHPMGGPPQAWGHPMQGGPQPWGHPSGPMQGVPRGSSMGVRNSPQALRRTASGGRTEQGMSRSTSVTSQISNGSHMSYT

Chain of Serine/threonine-protein kinase D1 (Q15139 whole entry): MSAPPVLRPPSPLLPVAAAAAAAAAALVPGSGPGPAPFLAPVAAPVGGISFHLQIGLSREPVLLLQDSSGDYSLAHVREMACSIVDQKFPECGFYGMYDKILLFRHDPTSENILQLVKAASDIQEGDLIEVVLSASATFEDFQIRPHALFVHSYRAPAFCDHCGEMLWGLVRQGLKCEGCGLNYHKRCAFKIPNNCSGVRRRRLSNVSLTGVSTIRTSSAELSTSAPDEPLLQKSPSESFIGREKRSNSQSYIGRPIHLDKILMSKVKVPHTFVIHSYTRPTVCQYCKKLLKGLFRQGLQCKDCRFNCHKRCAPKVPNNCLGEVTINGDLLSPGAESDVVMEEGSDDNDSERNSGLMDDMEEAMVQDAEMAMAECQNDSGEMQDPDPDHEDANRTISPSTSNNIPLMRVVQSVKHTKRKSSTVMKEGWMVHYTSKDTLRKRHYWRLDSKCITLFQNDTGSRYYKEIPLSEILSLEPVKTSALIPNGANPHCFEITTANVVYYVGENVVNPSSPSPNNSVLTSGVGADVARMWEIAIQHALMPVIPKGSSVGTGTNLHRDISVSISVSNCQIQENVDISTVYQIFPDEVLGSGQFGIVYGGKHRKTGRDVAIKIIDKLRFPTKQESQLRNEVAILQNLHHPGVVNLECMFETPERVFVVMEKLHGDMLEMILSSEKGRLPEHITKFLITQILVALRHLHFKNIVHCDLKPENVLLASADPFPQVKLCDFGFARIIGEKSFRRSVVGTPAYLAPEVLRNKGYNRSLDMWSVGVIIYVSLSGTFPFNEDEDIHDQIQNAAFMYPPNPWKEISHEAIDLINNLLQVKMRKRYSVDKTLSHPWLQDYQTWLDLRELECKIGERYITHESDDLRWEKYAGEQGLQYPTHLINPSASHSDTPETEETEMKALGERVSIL
Chain of Ribosomal protein S6 kinase alpha-3 (P51812 whole entry): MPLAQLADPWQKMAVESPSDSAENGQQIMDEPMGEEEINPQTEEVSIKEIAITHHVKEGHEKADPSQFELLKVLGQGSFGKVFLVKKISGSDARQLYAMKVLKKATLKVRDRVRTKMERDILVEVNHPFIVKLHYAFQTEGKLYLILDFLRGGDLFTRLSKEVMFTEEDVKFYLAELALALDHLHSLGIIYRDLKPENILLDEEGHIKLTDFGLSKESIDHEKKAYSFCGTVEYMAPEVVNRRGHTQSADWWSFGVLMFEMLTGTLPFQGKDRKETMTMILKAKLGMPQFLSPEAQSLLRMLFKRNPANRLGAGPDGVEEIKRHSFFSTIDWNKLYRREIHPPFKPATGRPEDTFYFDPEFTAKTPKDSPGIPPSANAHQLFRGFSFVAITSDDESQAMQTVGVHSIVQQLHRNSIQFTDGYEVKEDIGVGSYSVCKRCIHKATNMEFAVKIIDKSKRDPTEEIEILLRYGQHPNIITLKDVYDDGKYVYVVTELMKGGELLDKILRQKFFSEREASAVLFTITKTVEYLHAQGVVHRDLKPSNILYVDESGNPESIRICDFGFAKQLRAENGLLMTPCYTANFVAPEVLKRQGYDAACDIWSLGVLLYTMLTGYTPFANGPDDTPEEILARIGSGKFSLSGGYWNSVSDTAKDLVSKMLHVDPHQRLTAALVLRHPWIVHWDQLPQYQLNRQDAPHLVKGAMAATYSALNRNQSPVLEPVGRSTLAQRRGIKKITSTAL
Chain of Cyclin-dependent kinase 9 (P50750 whole entry): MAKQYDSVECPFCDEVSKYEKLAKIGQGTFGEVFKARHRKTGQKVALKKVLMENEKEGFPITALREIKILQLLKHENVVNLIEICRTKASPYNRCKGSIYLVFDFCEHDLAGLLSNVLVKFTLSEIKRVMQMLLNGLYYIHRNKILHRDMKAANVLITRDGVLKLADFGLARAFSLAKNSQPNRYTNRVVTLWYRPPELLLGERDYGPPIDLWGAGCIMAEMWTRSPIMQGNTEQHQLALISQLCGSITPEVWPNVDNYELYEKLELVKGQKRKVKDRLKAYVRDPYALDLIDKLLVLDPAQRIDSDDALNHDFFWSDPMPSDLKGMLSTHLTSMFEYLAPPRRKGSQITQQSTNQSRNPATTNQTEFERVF
Chain of Mitogen-activated protein kinase 15 (Q8TD08 whole entry): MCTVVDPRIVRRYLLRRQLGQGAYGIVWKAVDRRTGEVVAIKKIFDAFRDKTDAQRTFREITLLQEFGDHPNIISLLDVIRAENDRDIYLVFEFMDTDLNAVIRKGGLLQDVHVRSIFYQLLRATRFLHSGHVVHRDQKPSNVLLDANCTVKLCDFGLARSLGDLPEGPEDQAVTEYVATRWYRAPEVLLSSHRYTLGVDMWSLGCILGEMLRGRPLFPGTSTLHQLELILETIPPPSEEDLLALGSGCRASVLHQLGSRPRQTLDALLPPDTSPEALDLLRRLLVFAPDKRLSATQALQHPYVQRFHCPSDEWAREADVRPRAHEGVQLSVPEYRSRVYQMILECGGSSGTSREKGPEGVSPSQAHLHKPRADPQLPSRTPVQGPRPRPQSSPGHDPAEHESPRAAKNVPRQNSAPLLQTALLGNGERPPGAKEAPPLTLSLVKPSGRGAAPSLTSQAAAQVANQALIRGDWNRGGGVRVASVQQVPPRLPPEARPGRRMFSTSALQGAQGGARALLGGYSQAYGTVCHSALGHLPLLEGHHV
Chain of CDK18/Cyclin Y (Q07002 whole entry): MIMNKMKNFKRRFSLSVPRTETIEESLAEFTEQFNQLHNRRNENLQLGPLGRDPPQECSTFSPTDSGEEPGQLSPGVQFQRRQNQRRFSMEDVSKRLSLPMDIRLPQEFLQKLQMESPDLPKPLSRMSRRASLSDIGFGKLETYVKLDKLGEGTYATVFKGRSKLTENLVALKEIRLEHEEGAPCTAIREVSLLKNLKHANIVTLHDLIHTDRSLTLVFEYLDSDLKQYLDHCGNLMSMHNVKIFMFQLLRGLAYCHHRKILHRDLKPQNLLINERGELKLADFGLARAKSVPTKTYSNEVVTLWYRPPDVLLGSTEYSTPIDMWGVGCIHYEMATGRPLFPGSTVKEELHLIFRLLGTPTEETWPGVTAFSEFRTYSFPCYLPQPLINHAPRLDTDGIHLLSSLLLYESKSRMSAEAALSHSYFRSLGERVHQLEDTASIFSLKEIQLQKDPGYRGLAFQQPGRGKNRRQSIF
Chain of CDK18/Cyclin Y (Q8ND76 whole entry): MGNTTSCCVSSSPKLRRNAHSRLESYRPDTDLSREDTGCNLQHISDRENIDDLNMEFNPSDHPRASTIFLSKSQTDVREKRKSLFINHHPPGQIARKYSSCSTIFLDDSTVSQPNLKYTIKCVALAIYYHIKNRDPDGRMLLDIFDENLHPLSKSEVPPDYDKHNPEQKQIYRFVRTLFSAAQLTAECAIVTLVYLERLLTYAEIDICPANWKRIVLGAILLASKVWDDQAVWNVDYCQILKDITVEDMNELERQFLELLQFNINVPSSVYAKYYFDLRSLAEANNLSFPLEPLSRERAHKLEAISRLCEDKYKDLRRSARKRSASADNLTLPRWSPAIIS
Chain of Cytochrome P450 2C19 (P33261 whole entry): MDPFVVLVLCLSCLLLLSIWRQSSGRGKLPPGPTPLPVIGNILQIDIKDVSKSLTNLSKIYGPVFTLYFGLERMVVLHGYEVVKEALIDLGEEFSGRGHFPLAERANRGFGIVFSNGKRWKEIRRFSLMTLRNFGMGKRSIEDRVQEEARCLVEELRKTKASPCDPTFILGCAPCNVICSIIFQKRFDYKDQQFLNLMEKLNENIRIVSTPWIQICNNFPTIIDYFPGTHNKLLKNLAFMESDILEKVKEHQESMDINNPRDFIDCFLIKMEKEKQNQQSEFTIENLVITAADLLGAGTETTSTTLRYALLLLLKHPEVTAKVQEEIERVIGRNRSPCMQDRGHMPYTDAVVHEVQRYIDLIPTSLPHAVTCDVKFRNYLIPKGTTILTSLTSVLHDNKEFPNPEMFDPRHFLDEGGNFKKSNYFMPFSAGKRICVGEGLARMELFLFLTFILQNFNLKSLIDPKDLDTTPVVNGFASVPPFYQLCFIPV

clearance [1]: 52.6 mL/min/kg | Cmax [2]: 355 ng/mL | clearance [3]: 39.9 mL/min/kg | bioavailability [4]: 29% | bioavailability [5]: 147% | Cmax [6]: 3310 ng/mL | IC50 [7]: 258 nM | IC50 [9]: 16.1 nM | IC50 (CDK18/Cyclin Y): 4.2 nM | IC50 [10]: 26.5 nM | IC50 [11]: 23.7 nM | IC50 (Cytochrome P450 1A2): > 50000 nM | IC50 (Cytochrome P450 2C19): 30900 nM | half-life [12]: 3.4 h | AUC(0-t) [13]: 329 ng·h/mL | IC50 (OVCAR-3): 57 nM | residual activity [15]: 28% | residual activity [16]: 20% | residual activity [17]: 24%
Compound: CN1CC(F)(F)CCN(C)[C@H]2CC[C@@H](C2)Nc2ncc(C(F)(F)F)c(n2)-c2c[nH]c3c(P(C)(C)=O)c(ccc23)C1=O
IC50 [8]: 7.9 nM | Cmax [14]: 401 ng/mL | IC50 (HCC70): 24.6 nM
